From the supplement of paper PMC10307832

How the values were obtained:
Test in all cases: relative viability (nuclei count vs DMSO), 5 days (fraction); higher = more cells survive
[1] = system: EMC-BAC-2
Summary of the method: (§1)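 A single step with final 0.05% Triton X-100, 1% formaldehyde and 1 ug/ml Hoechst fixed the cells and stained nuclei 5 days after treatment. Lung cancer cell lines in 1536-well plates had been treated by pin tool the day after seeding with one drug alone or a fixed anchor-drug dose plus five library-drug doses (not always all listed) in √10 steps, and nuclei were counted on 4× images. Relative viability is the ratio of nuclei in treated wells to nuclei in vehicle wells, taken as the median of duplicate plates.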

[2] = system: EPLC-272H
Summary of the method: as §1

[3] = system: H3255
Summary of the method: as §1

[4] = system: HCC-44
Summary of the method: as §1

[5] = system: HCC-827
Summary of the method: as §1

[6] = system: LCLC-103H
Summary of the method: as §1

[7] = system: LCLC-97TM1
Summary of the method: as §1

[8] = system: NCI-H1355
Summary of the method: as §1

[9] = system: NCI-H1395
Summary of the method: as §1

[10] = system: NCI-H1563
Summary of the method: as §1

[11] = system: NCI-H1651
Summary of the method: as §1

[12] = system: NCI-H1793
Summary of the method: as §1

[13] = system: NCI-H1944
Summary of the method: as §1

[14] = system: NCI-H2023
Summary of the method: as §1

[15] = system: NCI-H2085
Summary of the method: as §1

[16] = system: NCI-H2087
Summary of the method: as §1

[17] = system: NCI-H2405
Summary of the method: as §1

[18] = system: NCI-H322M
Summary of the method: as §1

[19] = system: NCI-H520
Summary of the method: as §1

[20] = system: NCI-H650
Summary of the method: as §1

[21] = system: SK-MES-1
Summary of the method: as §1

[22] = system: UMC-11
Summary of the method: as §1

SMILES: C=C1C(=O)O[C@@H](CCCCCCCC)[C@@H]1C(=O)O [C-75] + Cc1nc(NC(=O)N2CCC[C@H]2C(N)=O)sc1-c1ccnc(C(C)(C)C(F)(F)F)c1 [Alpelisib] (partner 2 µM)
- relative viability ([1]; first compound 0.08 µM): 0.726
- relative viability ([1]; first compound 0.253 µM): 0.688
- relative viability ([1]; first compound 0.8 µM): 0.717
- relative viability ([1]; first compound 2.53 µM): 0.679
- relative viability ([1]; first compound 8 µM): 0.726
- relative viability ([2]; first compound 0.08 µM): 0.95
- relative viability ([2]; first compound 0.253 µM): 1.03
- relative viability ([2]; first compound 0.8 µM): 0.873
- relative viability ([2]; first compound 2.53 µM): 0.732
- relative viability ([2]; first compound 8 µM): 0.862
- relative viability ([3]; first compound 0.08 µM): 0.615
- relative viability ([3]; first compound 0.253 µM): 0.789
- relative viability ([3]; first compound 0.8 µM): 0.638
- relative viability ([3]; first compound 2.53 µM): 0.828
- relative viability ([3]; first compound 8 µM): 0.78
- relative viability ([4]; first compound 0.08 µM): 0.742
- relative viability ([4]; first compound 0.253 µM): 0.674
- relative viability ([4]; first compound 0.8 µM): 0.719
- relative viability ([4]; first compound 2.53 µM): 0.614
- relative viability ([4]; first compound 8 µM): 0.719
- relative viability ([5]; first compound 0.08 µM): 0.936
- relative viability ([5]; first compound 0.253 µM): 0.97
- relative viability ([5]; first compound 0.8 µM): 0.953
- relative viability ([5]; first compound 2.53 µM): 1.01
- relative viability ([5]; first compound 8 µM): 0.987
- relative viability ([6]; first compound 0.08 µM): 0.986
- relative viability ([6]; first compound 0.253 µM): 0.94
- relative viability ([6]; first compound 0.8 µM): 1.01
- relative viability ([6]; first compound 2.53 µM): 0.89
- relative viability ([6]; first compound 8 µM): 0.908
- relative viability ([7]; first compound 0.08 µM): 0.286
- relative viability ([7]; first compound 0.253 µM): 0.376
- relative viability ([7]; first compound 0.8 µM): 0.225
- relative viability ([7]; first compound 2.53 µM): 0.251
- relative viability ([7]; first compound 8 µM): 0.271
- relative viability ([8]; first compound 0.08 µM): 0.815
- relative viability ([8]; first compound 0.253 µM): 0.825
- relative viability ([8]; first compound 0.8 µM): 0.825
- relative viability ([8]; first compound 2.53 µM): 0.835
- relative viability ([8]; first compound 8 µM): 0.886
- relative viability ([9]; first compound 0.08 µM): 1.05
- relative viability ([9]; first compound 0.253 µM): 1.13
- relative viability ([9]; first compound 0.8 µM): 1.07
- relative viability ([9]; first compound 2.53 µM): 0.868
- relative viability ([9]; first compound 8 µM): 1.28
- relative viability ([10]; first compound 0.08 µM): 0.939
- relative viability ([10]; first compound 0.253 µM): 0.969
- relative viability ([10]; first compound 0.8 µM): 0.886
- relative viability ([10]; first compound 2.53 µM): 0.974
- relative viability ([10]; first compound 8 µM): 0.901
- relative viability ([11]; first compound 0.08 µM): 0.871
- relative viability ([11]; first compound 0.253 µM): 0.988
- relative viability ([11]; first compound 0.8 µM): 1.02
- relative viability ([11]; first compound 2.53 µM): 0.793
- relative viability ([11]; first compound 8 µM): 0.882
- relative viability ([12]; first compound 0.08 µM): 0.72
- relative viability ([12]; first compound 0.253 µM): 0.723
- relative viability ([12]; first compound 0.8 µM): 0.585
- relative viability ([12]; first compound 2.53 µM): 0.708
- relative viability ([12]; first compound 8 µM): 0.816
- relative viability ([13]; first compound 0.08 µM): 0.824
- relative viability ([13]; first compound 0.253 µM): 0.655
- relative viability ([13]; first compound 0.8 µM): 0.916
- relative viability ([13]; first compound 8 µM): 0.818
- relative viability ([14]; first compound 0.08 µM): 0.637
- relative viability ([14]; first compound 0.253 µM): 0.715
- relative viability ([14]; first compound 0.8 µM): 0.592
- relative viability ([14]; first compound 2.53 µM): 0.419
- relative viability ([14]; first compound 8 µM): 0.543
- relative viability ([15]; first compound 0.08 µM): 0.974
- relative viability ([15]; first compound 0.253 µM): 1.1
- relative viability ([15]; first compound 0.8 µM): 0.957
- relative viability ([15]; first compound 2.53 µM): 0.89
- relative viability ([15]; first compound 8 µM): 0.898
- relative viability ([16]; first compound 0.08 µM): 1.07
- relative viability ([16]; first compound 0.253 µM): 0.921
- relative viability ([16]; first compound 0.8 µM): 1.02
- relative viability ([16]; first compound 2.53 µM): 0.682
- relative viability ([16]; first compound 8 µM): 0.934
- relative viability ([17]; first compound 0.08 µM): 0.833
- relative viability ([17]; first compound 0.253 µM): 0.481
- relative viability ([17]; first compound 0.8 µM): 0.703
- relative viability ([17]; first compound 2.53 µM): 0.884
- relative viability ([17]; first compound 8 µM): 0.816
- relative viability ([18]; first compound 0.08 µM): 0.776
- relative viability ([18]; first compound 0.253 µM): 1.05
- relative viability ([18]; first compound 0.8 µM): 0.821
- relative viability ([18]; first compound 2.53 µM): 0.771
- relative viability ([18]; first compound 8 µM): 0.836
- relative viability ([19]; first compound 0.08 µM): 0.836
- relative viability ([19]; first compound 0.253 µM): 1.09
- relative viability ([19]; first compound 0.8 µM): 1.02
- relative viability ([19]; first compound 2.53 µM): 0.996
- relative viability ([19]; first compound 8 µM): 1.01
- relative viability ([20]; first compound 0.08 µM): 1.1
- relative viability ([20]; first compound 0.253 µM): 0.874
- relative viability ([20]; first compound 0.8 µM): 1.08
- relative viability ([20]; first compound 2.53 µM): 1.06
- relative viability ([20]; first compound 8 µM): 1.04
- relative viability ([21]; first compound 0.08 µM): 1.1
- relative viability ([21]; first compound 0.253 µM): 0.876
- relative viability ([21]; first compound 0.8 µM): 0.902
- relative viability ([21]; first compound 2.53 µM): 0.864
- relative viability ([21]; first compound 8 µM): 0.792
- relative viability ([22]; first compound 0.08 µM): 0.927
- relative viability ([22]; first compound 0.253 µM): 1.15
- relative viability ([22]; first compound 0.8 µM): 0.97
- relative viability ([22]; first compound 2.53 µM): 0.909
- relative viability ([22]; first compound 8 µM): 0.786
